# In patent publication US7531195B2, “Schisandrin B preparation” (priority 2005, dated 2009):
# How the values were obtained:
# [1] = tested on: mitochondria of brain, heart, liver and skeletal muscle; assay: Mitochondrial antioxidant status in various tissues of young female rats; format: in vivo, rat; details: (−) Sch B, α-LA, α-Toc at daily 10, 5 and 70 mg/kg respectively, 15 days
# Protocol: The dosages were determined with reference to the equivalent amount of crude herb prescribed for human or the daily recommended intake in health supplements. The control animals received olive oil only. Twenty-four hours after the last dose, the pentobarbital-anesthetized animals were sacrificed by cardiac excision, and brain. heart, liver and skeletal muscle tissues were obtained. Tissue samples (brain, heart, liver, and skeletal muscle) were rinsed with ice-cold isotonic buffer (50 mM Tris, 0.32 M sucrose, 1 mM Na2EDTA, 0.2 mg/ml soybean trypsin inhibitor, 0.2 mg/ml bacitracine, 0.16 mg/ml benzamidine). Tissue homogenates were prepared by homogenizing 0.8 g of myocardial tissue in 8 ml ice-cold isotonic buffer and the homogenates were used for the preparation of mitochondrial fractions by differential centrifugation, as described in Chiu and Ko (2004). The mitochondrial pellets were resuspended in 1.5 ml of isotonic buffer containing 150 μl of 2 mg/ml soybean trypsin inhibitor and constituted the mitochondrial fractions. […] (St. Louis, Mo., USA). […] Aliquots (400 μl) of mitochondrial fractions were mixed with 933 μl Triton X-100 solution (0.3%, v/v, in isotonic buffer) and sonicated for 2 min on ice. The mixtures were then subjected to measurements of mitochondrial glutathione reductase (GRD), Se-glutathione peroxidase (GPX) and glutathione S-transferases (GST) activities by spectrophotometric methods, as described in Chiu et al. (2002).
# [2] = tested on: mitochondria of brain, heart, liver and skeletal muscle; assay: Mitochondrial ATP generation capacity in various tissues of young female rats; format: in vivo, rat; details: 15 days; for ATP generation: (−) Sch B, α-LA, α-Toc at daily 10, 5 and 70 mg/kg respectively; for effect on mitochondrial ATP generation capacity in various tissues: α-LA 5 mg/kg, α-Toc 70 mg/kg daily
structure (smiles),measurement,setting,value
"O=C(O)CCCCC1CCSS1 (stereo not drawn) [α-LA, α-lipoic acid]",GPX,[1]; BRAIN,126 ± 9 percent control
same,GRD,[1]; BRAIN,131 ± 5 percent control
same,GSH,[1]; BRAIN,93 ± 2 percent control
same,GST,[1]; BRAIN,103 ± 3 percent control
same,α-Toc level,[1]; BRAIN,110 ± 6 percent control
same,GPX,[1]; HEART,105 ± 9 percent control
same,GRD,[1]; HEART,144 ± 11 percent control
same,GSH,[1]; HEART,103 ± 4 percent control
same,GST,[1]; HEART,119 ± 6 percent control
same,α-Toc level,[1]; HEART,111 ± 4 percent control
same,GPX,[1]; LIVER,159 ± 10 percent control
same,GRD,[1]; LIVER,143 ± 8 percent control
same,GSH,[1]; LIVER,117 ± 2 percent control
same,GST,[1]; LIVER,112 ± 3 percent control
same,α-Toc level,[1]; LIVER,124 ± 13 percent control
same,GPX,[1]; SKELETAL MUSCLE,117 ± 5 percent control
same,GRD,[1]; SKELETAL MUSCLE,123 ± 12 percent control
same,GSH,[1]; SKELETAL MUSCLE,154 ± 12 percent control
same,GST,[1]; SKELETAL MUSCLE,171 ± 19 percent control
same,α-Toc level,[1]; SKELETAL MUSCLE,147 ± 14 percent control
same,ATP generation,[2]; BRAIN,72 ± 4 percent control
same,ATP generation,[2]; HEART,68 ± 9 percent control
same,ATP generation,[2]; LIVER,77 ± 5 percent control
same,ATP generation,[2]; SKELETAL MUSCLE,101 ± 1 percent control
same,effect on mitochondrial ATP generation capacity in various tissues,[2],decreased
"Cc1c(C)c2c(c(C)c1O)CC[C@@](C)(CCC[C@H](C)CCC[C@H](C)CCCC(C)C)O2 [α-Toc, α-tocopherol]",GPX,[1]; BRAIN,121 ± 12 percent control
same,GRD,[1]; BRAIN,153 ± 10 percent control
same,GSH,[1]; BRAIN,119 ± 6 percent control
same,GST,[1]; BRAIN,121 ± 5 percent control
same,α-Toc level,[1]; BRAIN,139 ± 9 percent control
same,GPX,[1]; HEART,130 ± 10 percent control
same,GRD,[1]; HEART,243 ± 20 percent control
same,GSH,[1]; HEART,152 ± 9 percent control
same,GST,[1]; HEART,159 ± 7 percent control
same,α-Toc level,[1]; HEART,151 ± 5 percent control
same,GPX,[1]; LIVER,169 ± 14 percent control
same,GRD,[1]; LIVER,161 ± 5 percent control
same,GSH,[1]; LIVER,133 ± 11 percent control
same,GST,[1]; LIVER,128 ± 3 percent control
same,α-Toc level,[1]; LIVER,214 ± 31 percent control
same,GPX,[1]; SKELETAL MUSCLE,136 ± 7 percent control
same,GRD,[1]; SKELETAL MUSCLE,149 ± 8 percent control
same,GSH,[1]; SKELETAL MUSCLE,153 ± 6 percent control
same,GST,[1]; SKELETAL MUSCLE,176 ± 13 percent control
same,α-Toc level,[1]; SKELETAL MUSCLE,189 ± 11 percent control
same,ATP generation,[2]; BRAIN,62 ± 8 percent control
same,ATP generation,[2]; HEART,95 ± 12 percent control
same,ATP generation,[2]; LIVER,83 ± 8 percent control
same,ATP generation,[2]; SKELETAL MUSCLE,80 ± 8 percent control
same,effect on mitochondrial ATP generation capacity in various tissues,[2],decreased
